Source: patent US10214507B2, “Carbazole-containing amides, carbamates, and ureas as cryptochrome modulators” (Reset Therapeutics, Inc., priority 2014, dated 2019)
Where two headings read alike, the source gives them in different places.

Key:
[1] = test system: C57/Bl6J DIO mice; assay: Increasing dosages of Compound 72 for 7 days in diet-induced obesity mouse model; type: in vivo
From the text: (§1) Male C57/Bl6J DIO mice were obtained from The Jackson Laboratory (Sacramento, Calif.). […] Animals were accustomed to these conditions for at least 2 weeks before experimentation and used at approximately 24 weeks of age.
(§2) Significance was accepted when p<0.05.
Male C57/Bl6J DIO mice were obtained from The Jackson Laboratory (Sacramento, Calif.). […] Animals were accustomed to these conditions for at least 2 weeks before experimentation and used at approximately 26 weeks of age.

[2] = Pharmacokinetic analysis in ICR mice (plasma and liver, LC/MS/MS); type: in vivo, mouse; conditions: 50 mg/kg P.O.; for Cmax / Tmax / half-life / MRT last: male, ICR, po; for Cmax: 50 mg/kg; for half-life: read-out: Elimination T1/2 (converted); for MRT last: read-out: MRT (0-last, hr)
Experimental: Male ICR mice (weighing 30-40 g, Charles River Laboratories) were used for the experiment with n=3 mice for each experimental group (27 mice total for the study). […] Blood and liver tissue were collected at the following time points after administration: 15, 30, 60, 90 minutes, 3, 6, 12 and 24 hours. A control group of animals (TO) was also sampled. Animals were euthanized with CO2 and the blood collected from the heart using cardiac puncture, transferred to an EDTA tube, and then centrifuged at 5400 rpm for 5 minutes at 4° C. The resultant plasma was frozen using dry ice and then stored at −80° C. until ready for assay. Liver tissue was removed from each animal, 0.5 g was collected in an eppendorff, frozen and submitted for pharmacokinetic measurement. […] Raw data was analyzed using WinNonLin for PK parameters (Cmax, Tmax, elimination t^1/2, MRT (mean residence time), AUC (area under the curve)−(0-last and % extrapolated).

[3] = 7 day dosing, glucose metabolism, insulin and compound levels in db/db mice; type: in vivo, mouse; conditions: male, mouse, around 8 hours after last dose, 50 mg/kg PO 7 days
From the text: as §2

[4] = test system: db/db mouse model of type II diabetes; assay: as above; type: in vivo; conditions: 50 mg/kg PO 7 days
From the text: as §2

[5] = test system: C57/Bl6J DIO mice; assay: 7 day dosing in diet-induced obesity (DIO) mouse model; type: in vivo; conditions: 100 mg/kg PO 7 days
From the text: as §1, §2

[6] = test system: core clock gene mRNAs in mouse liver; assay: Core clock gene mRNAs in liver after a single dose at peak or nadir of Cry1 expression; type: in vivo; conditions: single dose 50 mg/kg, liver 7.5 hours later
Experimental: For compounds that interact directly with the core clock mechanism, the time of dosing may be critical for maximizing their effects. […] The former (ZTO) is coincident with the peak of Cry1 and Bmal1 protein in mouse liver and the latter (ZT10) corresponds to the approximate nadir of Cry1 and Bmal1. Liver tissue was taken 7.5 hours later for each, and the samples were examined for core clock gene mRNAs by RT-qPCR.

[7] = test system: Dbp mRNA in whole blood of db/db mice; assay: Dbp mRNA in whole blood of db/db mice after three daily doses; type: in vivo, mouse; conditions: 100 mg/kg PO once daily 3 days, ZT7.5
Experimental: For whole blood RNA studies, male db/db mice (9 weeks of age, The Jackson Laboratory, Bar Harbor, Me.) were used for the experiment with n=8 mice for each experimental group. […] On the final day at ZT7.5 (2:30 pm), animals were euthanized using CO2 asphyxiation, and the blood collected from the heart via cardiac puncture. The blood was placed in RNALater solution to 1.5 ml total volume. Total RNA was prepared using an Ambion Mouse RiboPure Blood RNA Isolation Kit AM1951 as follows. Samples were centrifuged for 3 minutes, discarding the supernatant. Two ml of lysis solution was added and vortexed, transferred to a 15 ml tube followed by the addition of […]. Lysis buffer was added to a total volume of 3.8 ml and vortexed. The sample mixture was extracted with 1.5 ml Acid Phenol: Chloroform and the aqueous phase was recovered. After adding 0.5 volumes of 100% ethanol and vortexing, the samples were passed through a filter column provided in the kit and washed with 750 microliters of wash buffer 1. The filter was washed with 2 passes of 750 microliters wash buffer ⅔ and dried. RNA was eluted in 200 microliters of molecular biology grade water (RNase-free).
The levels of core clock gene mRNAs in whole blood may provide a non-invasive method of determining effects of compounds in treated subjects. […]

O=C1NCCN1CC(O)Cn1c2ccc(F)cc2c2cc(F)ccc21 (stereo not drawn) [Compound 72, 1-(3-(3,6-difluoro-9H-carbazol-9-yl)-2-hydroxypropyl)imidazolidin-2-one]
fasting blood glucose ([1]; 10 mg/kg QD PO 7 days): 206.8 ± 8.36 mg/dL
glucose AUC from OGTT ([1]; 10 mg/kg QD PO 7 days): 22563+/−1224 units
fasting blood glucose ([1]; 30 mg/kg QD PO 7 days): 197.5 ± 12.06 mg/dL
glucose AUC from OGTT ([1]; 30 mg/kg QD PO 7 days): 19033+/−1934 units
fasting blood glucose ([1]; 100 mg/kg QD PO 7 days): 176.3 ± 7.83 mg/dL
glucose AUC from OGTT ([1]; 100 mg/kg QD PO 7 days): 19502+/−2404 units
Cmax ([2]; mouse, liver, mouse liver, read-out: Cmax): 7890 ng/mL
Cmax ([2]; mouse, liver, mouse, unbound, read-out: Cmax UB (liver)): 288 ng/mL
Cmax ([2]; mouse, plasma, mouse plasma, read-out: Cmax): 1150 ng/mL
Cmax ([2]; mouse, plasma, mouse, read-out: Cmax (plasma)): 1150 ng/mL
Cmax ([2]; mouse, plasma, mouse, unbound, read-out: Cmax UB (plasma)): 41.9 ng/mL
Tmax ([2]; mouse liver): 15 to 30 min
half-life ([2]; mouse liver): 204 min
MRT last ([2]; mouse liver): 4.74 h
Tmax ([2]; mouse plasma): 15 to 30 min
half-life ([2]; mouse plasma): 188 min
MRT last ([2]; mouse plasma): 5.3 h
% AUC extrapolated ([2]; mouse liver): 0.85%
AUC (total; ng · hr/mL) ([2]; mouse liver): 17961 ng·h/mL
% AUC extrapolated ([2]; mouse plasma): 1.74%
AUC (total; ng · hr/mL) ([2]; mouse plasma): 4236 ng·h/mL
Cmax (liver) ([2]; mouse): 7890 ng/mL
Total Liver AUC (0-last) ([2]; mouse): 17822
Unbound Liver AUC (0-last) ([2]; mouse): 650.5
Unbound Plasma AUC (0-last) ([2]; mouse): 151.5
concentration at 8 h ([3]; liver, read-out: compound level in liver): 670 nM
concentration at 8 h ([3]; plasma, read-out: compound level in plasma): 530 nM
HOMA-IR [4]: 93.69+/−23.60 units
fasting blood glucose (FBG) [4]: 385.0 ± 29.69 mg/dL
glucose AUC calculated from the OGTT [4]: 35942+/−3192
plasma insulin at t=0 [4]: 3.78 ± 0.69 ng/mL
plasma insulin at t=2 hr ([4]; after glucose load): 2.53 ± 0.50 ng/mL
reduction of HOMA-IR ([4]; vs vehicle): 33%
reduction of insulin at t=0 ([4]; vs vehicle): 20%
reduction of insulin at t=2 hr ([4]; vs vehicle): 21%
HOMA-IR [5]: 32.54+/−3.37 units
fasting blood glucose [5]: 177.1 ± 8.28 mg/dL
glucose AUC calculated from the OGTT [5]: 17055+/−769.1
plasma insulin at t=0 [5]: 3.12 ± 0.24 ng/mL
plasma insulin at t=2 hr [5]: 2.88 ± 0.21 ng/mL
impact on clock mRNAs, dosing at peak (ZT0) vs nadir (ZT10) [6]: greater relative impact on the clock mRNAs at the peak compared to the nadir
Dbp gene expression in whole blood [7]: statistically significant suppression
